According to patent publication US6548495B2, “Dihydro-benzo [B] [1,4] diazepin-2-one derivatives” (Hoffmann-La Roche Inc., priority 2002, dated 2003):

| SMILES | melting point |
| --- | --- |
| O=C1CC(c2cccc(-n3ncnc3CNC3CC3)c2)=Nc2cc(Cl)c(C(F)(F)F)cc2N1 [Example 66, 7-Chloro-4-[3-(5-cyclopropylaminomethyl-[1,2,4]triazol-1-yl)-phenyl]-8-trifluoromethyl-1,3-dihydro-benzo[b][1,4]diazepin-2-one] | 191 °C |
| O=C1CC(c2cccc(-c3nc(CN4CCOCC4)co3)c2)=Nc2ccc(-n3cccc3)cc2N1 [Example 81, 4-[3-(4-Morpholin-4-ylmethyl-oxazol-2-yl)-phenyl]-8-pyrrol-1-yl-1,3-dihydro-benzo[b][1,4]diazepin-2-one] | 166 to 167 °C |
| CCOc1cc2c(cc1C(F)(F)F)NC(=O)CC(c1cccc(-n3nncc3CNC3CC3)c1)=N2 [Example 54, 4-[3-(5-Cyclopropylaminomethyl-[1,2,3]triazol-1-yl)-phenyl]-7-ethoxy-8-trifluoromethyl-1,3-dihydro-benzo[b][1,4]diazepin-2-one] | 80 °C |
| CN(C)Cc1coc(-c2cccc(C3=Nc4ccc(-n5cccc5)cc4NC(=O)C3)c2)n1 [Example 80, 4-[3-(4-Dimethylaminomethyl-oxazol-2-yl)-phenyl]-8-pyrrol-1-yl-1,3-dihydro-benzo[b][1,4]diazepin-2-one] | 172 to 175 °C |
| N#Cc1cccc(C2=Nc3ccc(-n4cc(C#N)c(-c5ccccc5)c4)cc3NC(=O)C2)c1 [Example 6, 1-[2-(3-Cyano-phenyl)-4-oxo-4,5-dihydro-3H-benzo[b][1,4]diazepin-7-yl]-4-phenyl-1H-pyrrole-3-carbonitrile] | 274 °C (dec.) |
| O=C1CC(c2cccc(-c3ocnc3C(=O)NCCO)c2)=Nc2ccc(-n3cccc3)cc2N1 [Example 24, 5-[3-(4-oxo-7-Pyrrol-1-yl-4,5-dihydro-3H-benzo[b][1,4]diazepin-2-yl)-phenyl]-oxazole-4-carboxylic Acid (2-Hydroxy-ethyl)-amide] | 228 to 230 °C |
| N#Cc1cc(C2=Nc3ccc(-n4cccc4)cc3NC(=O)C2)ccn1 [Example 82, 4-(4-oxo-7-Pyrrol-1-yl-4,5-dihydro-3H-benzo[b][1,4]diazepin-2-yl)-pyridine-2-carbonitrile] | 243 to 244 °C |
| CNCc1coc(-c2cccc(C3=Nc4ccc(-n5cccc5)cc4NC(=O)C3)c2)n1 [Example 79, 4-[3-(4-Methylaminomethyl-oxazol-2-yl)-phenyl]-8-pyrrol-1-yl-1,3-dihydro-benzo[b][1,4]diazepin-2-one] | 182 to 183 °C |
| O=C1CC(c2cccc(-n3nncc3CO)c2)=Nc2cc(F)c(C(F)(F)F)cc2N1 [Example 51, 7-Fluoro-4-[3-(5-hydroxymethyl-[1,2,3]triazol-1-yl)-phenyl]-8-trifluoromethyl-1,3-dihydro-benzo[b][1,4]diazepin-2-one] | 197 to 199 °C |
| CC(=O)OCc1coc(-c2cccc(C3=Nc4ccc(-n5cccc5)cc4NC(=O)C3)c2)n1 [Example 78, Acetic Acid 2-[3-(4-oxo-7-Pyrrol-1-yl-4,5-dihydro-3H-benzo[b][1,4]diazepin-2-yl)-phenyl]-oxazol-4-ylmethyl Ester] | 206 to 207 °C |
| COC(=O)c1cccn1-c1ccc2c(c1)NC(=O)CC(c1cccc(C#N)c1)=N2 [Example 15, 1-[2-(3-Cyano-phenyl)-4-oxo-4,5-dihydro-3H-benzo[b][1,4]diazepin-7-yl]-1H-pyrrole-2-carboxylic Acid Methyl Ester] | > 207 °C (dec.) |
| N#CCc1cc2c(cc1I)NC(=O)CC(c1cccc(-n3ccnc3)c1)=N2 [Example 37, [4-(3-Imidazol-1-yl-phenyl)-8-iodo-2-oxo-2,3-dihydro-1H-benzo[b][1,4]diazepin-7-yl]-acetonitrile] | 243 to 245 °C |
| COc1cc2c(cc1C(F)(F)F)NC(=O)CC(c1cccc(-c3cc(C)no3)c1)=N2 [Example 45, 7-Methoxy-4-[3-(3-methyl-isoxazol-5-yl)-phenyl]-8-trifluoromethyl-1,3-dihydro-benzo[b][1,4]diazepin-2-one] | 225 °C |
| Cc1cc2c(cc1C(F)(F)F)NC(=O)CC(c1cccc(-c3ncoc3C)c1)=N2 [Example 83, 7-Methyl-4-[3-(5-methyl-oxazol-4-yl)-phenyl]-8-trifluoromethyl-1,3-dihydro-benzo[b][1,4]diazepin-2-one] | 241 to 242 °C |
| O=C1CC(c2cccc(-n3cccn3)c2)=Nc2cc(N3CCOCC3)c(C(F)(F)F)cc2N1 [Example 49, 7-Morpholin-4-yl-4-(3-pyrazol-1-yl-phenyl)-8-trifluoromethyl-1,3-dihydro-benzo[b][1,4]diazepin-2-one] | 166 °C |
| NC(=O)c1cccc(C2=Nc3ccc(-n4cccc4)cc3NC(=O)C2)c1 [Example 8, 3-(4-oxo-7-Pyrrol-1-yl-4,5-dihydro-3H-benzo[b][1,4]diazepin-2-yl)-benzamide] | 238 to 239 °C (dec.) |
| Cc1cc(-c2cccc(C3=Nc4cc(C)c(C(F)(F)F)cc4NC(=O)C3)c2)on1 [Example 70, 7-Methyl-4-[3-(3-methyl-isoxazol-5-yl)-phenyl]-8-trifluoromethyl-1,3-dihydro-benzo[b][1,4]diazepin-2-one] | 240 °C |

| SMILES | melting point |
| --- | --- |
| O=C1CC(c2cccc(-c3csc(C(=O)NCCO)n3)c2)=Nc2ccc(-n3cccc3)cc2N1 [Example 32, 4-[3-(4-oxo-7-Pyrrol-1-yl-4,5-dihydro-3H-benzo[b][1,4]diazepin-2-yl)-phenyl]-thiazole-2-carboxylic Acid (2-Hydroxy-ethyl)-amide] | 236 to 238 °C |
| Cc1cc(-c2cccc(C3=Nc4cc(N5CCOCC5)c(C(F)(F)F)cc4NC(=O)C3)c2)on1 [Example 3, 4-[3-(3-Methyl-isoxazol-5-yl)-phenyl]-7-morpholin-4-yl-8-trifluoromethyl-1,3-dihydro-benzo[b][1,4]diazepin-2-one] | 170 °C |
| O=C1CC(c2cccc(-n3ccnn3)c2)=Nc2cc(Cl)c(C(F)(F)F)cc2N1 [Example 73, 7-Chloro-4-(3-[1,2,3]triazol-1-yl-phenyl)-8-trifluoromethyl-1,3-dihydro-benzo[b][1,4]diazepin-2-one] | 219 °C |
| O=C1CC(c2cccc(-n3cnnc3)c2)=Nc2cc(N3CCOCC3)c(C(F)(F)F)cc2N1 [Example 50, 7-Morpholin-4-yl-4-(3-[1,2,4]triazol-4-yl-phenyl)-8-trifluoromethyl-1,3-dihydro-benzo[b][1,4]diazepin-2-one] | 233 to 236 °C |
| O=C1CC(c2cccc(-n3cncn3)c2)=Nc2cc(Cl)c(C(F)(F)F)cc2N1 [Example 71, 7-Chloro-4-(3-[1,2,4]triazol-1-yl-phenyl)-8-trifluoromethyl-1,3-dihydro-benzo[b][1,4]diazepin-2-one] | 258 °C |
| Cc1cc2c(cc1C(F)(F)F)NC(=O)CC(c1cccc(-n3cncn3)c1)=N2 [Example 74, 7-Methyl-4-(3-[1,2,4]triazol-1-yl-phenyl)-8-trifluoromethyl-1,3-dihydro-benzo[b][1,4]diazepin-2-one] | 241 °C |
| O=C1CC(c2cccc(-n3ncnc3CO)c2)=Nc2cc(Cl)c(C(F)(F)F)cc2N1 [Example 64, 7-Chloro-4-[3-(5-hydroxymethyl-[1,2,4]triazol-1-yl)-phenyl]-8-trifluoromethyl-1,3-dihydro-benzo[b][1,4]diazepin-2-one] | 212 °C |
| O=C1CC(c2cccc(-c3csc(CO)n3)c2)=Nc2ccc(-n3cccc3)cc2N1 [Example 33, 4-[3-(2-Hydroxymethyl-thiazol-4-yl)-phenyl]-8-pyrrol-1-yl-1,3-dihydro-benzo[b][1,4]diazepin-2-one] | 185 to 190 °C (dec.) |
| CCOc1cc2c(cc1C(F)(F)F)NC(=O)CC(c1cccc(-n3ccnn3)c1)=N2 [Example 56, 7-Ethoxy-4-(3-[1,2,3]triazol-1-yl-phenyl)-8-trifluoromethyl-1,3-dihydro-benzo[b][1,4]diazepin-2-one] | 215 °C |
| Cc1cc(-c2cccc(C3=Nc4cc(N5CCSCC5)c(C(F)(F)F)cc4NC(=O)C3)c2)on1 [Example 41, 4-[3-(3-Methyl-isoxazol-5-yl)-phenyl]-7-thiomorpholin-4-yl-8-trifluoromethyl-1,3-dihydro-benzo[b][1,4]diazepin-2-one] | 230 to 233 °C |
| Cc1cc(-c2cccc(C3=Nc4ccc(-n5cccc5)cc4NC(=O)C3)c2)on1 [Example 29, 4-[3-(3-Methyl-isoxazol-5-yl)-phenyl]-8-pyrrol-1-yl-1,3-dihydro-benzo[b][1,4]diazepin-2-one] | 248 to 250 °C |
| CCOC(=O)c1nc(-c2cccc(C3=Nc4ccc(-n5cccc5)cc4NC(=O)C3)c2)cs1 [Example 28, 4-[3-(4-oxo-7-Pyrrol-1-yl-4,5-dihydro-3H-benzo[b][1,4]diazepin-2-yl)-phenyl]-thiazole-2-carboxylic Acid Ethyl Ester] | 213 to 215 °C |
| CCOC(=O)c1csc(-c2cccc(C3=Nc4ccc(-n5cccc5)cc4NC(=O)C3)c2)n1 [Example 19, 2-[3-(4-oxo-7-Pyrrol-1-yl-4,5-dihydro-3H-benzo[b][1,4]diazepin-2-yl)-phenyl]-thiazole-4-carboxylic Acid Ethyl Ester] | 198 to 201 °C |
| O=C1CC(c2cccc(-c3nc(CO)co3)c2)=Nc2ccc(-n3cccc3)cc2N1 [Example 26, 4-[3-(4-Hydroxymethyl-oxazol-2-yl)-phenyl]-8-pyrrol-1-yl-1,3-dihydro-benzo[b][1,4]diazepin-2-one] | 240 to 242 °C |
| O=C1CC(c2cccc(-n3nncc3CO)c2)=Nc2cc(Cl)c(C(F)(F)F)cc2N1 [Example 63, 7-Chloro-4-[3-(5-hydroxymethyl-[1,2,3]triazol-1-yl)-phenyl]-8-trifluoromethyl-1,3-dihydro-benzo[b][1,4]diazepin-2-one] | 198 °C |
| COc1cc2c(cc1C(F)(F)F)NC(=O)CC(c1ccnc(C#N)c1)=N2 [Example 44, 4-(8-Methoxy-4-oxo-7-trifluoromethyl-4,5-dihydro-3H-benzo[b][1,4]diazepin-2-yl)-pyridine-2-carbonitrile] | 227 °C |
| O=C1CC(c2cccc(-c3cc(CO)no3)c2)=Nc2cc(N3CCOCC3)c(C(F)(F)F)cc2N1 [Example 39, 4-[3-(3-Hydroxymethyl-isoxazol-5-yl)-phenyl]-7-morpholin-4-yl-8-trifluoromethyl-1,3-dihydro-benzo[b][1,4]diazepin-2-one] | 196 °C |
